# Data taken from patent publication US8212050B2, “Amidine compounds and herbicides” (Nippon Soda Co., Ltd., priority 2005, dated 2012).
row,melting point,Compound
1,73 to 75 °C,"C#CCOc1cc(N=C(C=NOC)N2CCCC2)c(F)cc1Cl [compound 190, 2-(4-chloro-2-fluoro-5-propargyloxyphenylimino)-2-(pyrrolidine-1-yl)acetaldehyde O-methyloxime]"
2,160 to 163 °C,"CCOC(=O)C(C)Oc1cc(N=C(C(N)=O)N2CCCC2)c(Cl)cc1Cl (centres unmarked) [compound 293, 2-[2,4-dichloro-5-(1-ethoxycarbonylethoxy)phenylimino]-2-(pyrrolidine-1-yl)acetamide]"
